Some test systems named below: MCF7 breast; MDA-MB-231 breast; BT-549 breast; MDA-N; M19-MEL melanoma; KM20L2 colon.
Assay in all cases: DTP human tumour cell line panel, 48 h

Structures are written as SMILES. “And” between values parts separate entries of the source, which are not always exact repeats. Equal entries are not always repeated.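 All cell lines were grown in 96-well plates and treated with compound for 48 hours. GI50 is the concentration that inhibits growth by half. At the TGI there is no net growth.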

For orientation: GI50 means the concentration giving 50% growth inhibition. As a reminder, the TGI is the concentration giving total growth inhibition. Lower therefore signals more potent growth arrest. As for `CCCCCCCCN(CCCCCCCC)C(=N)c1ccnc2ccccc12`, in the test on MCF7 breast, the GI50 was 0.261 µM and the TGI was found to be 1.21 µM.
As to `C[C@H](c1ccc(Cl)cc1N)N1C(=O)c2cc(I)ccc2N(CCCN2CCN(C)CC2)C(=O)[C@@H]1c1ccc(Cl)cc1`, the GI50 in the test on MDA-MB-231 breast is 1.53 µM; in the test with MCF7 breast, 1.15 µM. For the same compound, the TGI in the test with MDA-MB-231 breast was found to be 2.97 µM; in the test on MCF7 breast, 2.41 µM.
As to `Cc1cc(Cl)ccc1Nc1sc(C(=O)c2cc3cc(Cl)ccc3o2)c(N)c1C#N`, the TGI was greater than 55 µM with MDA-MB-231 breast, greater than 100 µM in the test with BT-549 breast, 59.6 µM in the test with MCF7 breast and greater than 100 µM in the test on MDA-N.
Take `Cc1cc(NC(=O)c2ccc(NS(=O)(=O)CCO)cc2N2CCC3(CC2)CC3)nc(N2CCC(F)(F)CC2)n1`: the GI50 in the test with MDA-MB-231 breast was 0.188 µM; with BT-549 breast, 0.486 µM; in the test with MCF7 breast it was 8.33 µM. The TGI in the test on MDA-MB-231 breast came out at 17.6 µM; in the test with BT-549 breast, 17.9 µM; in the test with MCF7 breast it was 25.2 µM.
`CCN1C(=O)N(CC)C2C1NN=c1s/c(=C3\C(=O)N(CCC(C)C)c4ccccc43)c(=O)n12` (centres undefined): the GI50 is 1.66 µM with MDA-MB-231 breast, 1.96 µM in the test on BT-549 breast and 0.412 µM in the test with MCF7 breast. For the same compound, the TGI was 3.42 µM in the test on MDA-MB-231 breast, 6.33 µM in the test on BT-549 breast and 41.9 µM in the test on MCF7 breast.
Take `Nc1ncc(-c2cnn(C3CCNCC3)c2)cc1-c1nc2ccccc2o1`: the figures for the GI50 in the test on MDA-MB-231 breast, with BT-549 breast and in the test with MCF7 breast were 2.32 µM, 2.44 µM and 0.441 µM, respectively. In addition, the results for the TGI with MDA-MB-231 breast, in the test on BT-549 breast and in the test on MCF7 breast were 6.56 µM, 10.2 µM and 2.13 µM, respectively.
For the compound `Cc1ccc(-c2csc(N(C(=O)N3CCN(c4cc5c(cc4F)c(=O)c(C(=O)O)cn5C4CC4)CC3)c3ccccc3)n2)cc1`, in the test with BT-549 breast, the GI50 is 0.32 µM and the TGI amounted to 3.31 µM.
With `CS(=O)(=O)CCNCc1ccc(-c2ccc3ncnc(Nc4ccc(OCc5ccccc5)c(C(F)(F)F)c4)c3c2)o1`, the figures for the GI50 in the test with MDA-MB-231 breast, in the test with BT-549 breast and in the test with MCF7 breast were 4.55 µM, 8.99 µM and 4.55 µM, respectively. The TGI with MDA-MB-231 breast is 8.66 µM; with BT-549 breast, greater than 25 µM; in the test on MCF7 breast, 9.59 µM.
Consider `O=c1oc2ccc(Cl)cc2c(=O)n1-c1ccc(Cl)cc1F`, for which the GI50 with MDA-MB-231 breast is 0.397 µM; in the test with BT-549 breast, 0.483 µM; in the test with MCF7 breast it was 0.593 µM. For the same compound, the concentration for total growth inhibition (TGI) came out at 4.59 µM in the test with MDA-MB-231 breast, 2.44 µM with BT-549 breast and 23.8 µM in the test with MCF7 breast.
With `CN(C)CC/C=C1\c2ccccc2Sc2ccc(Cl)cc21`, the results for the GI50 in the test with MDA-MB-231 breast, in the test on BT-549 breast and in the test with MCF7 breast were 2.12 µM, 4.91 µM and 1.81 µM, respectively. The TGI in the test with MDA-MB-231 breast was 9.32 µM and 28.3 µM; in the test with BT-549 breast, 17.4 µM and 29.2 µM; in the test with MCF7 breast it was 3.37 µM and 30.3 µM; with MDA-N, 26.1 µM.
Take `C/C(=C\c1ccn(-c2ccc(N)c(C(F)(F)F)c2)n1)[C@@H]1C[C@@H]2O[C@]2(C)CCC[C@H](C)[C@H](O)[C@@H](C)C(=O)C(C)(C)[C@@H](O)CC(=O)O1`: the GI50 in the test on MDA-MB-231 breast is 0.134 µM; in the test on BT-549 breast, 0.0221 µM; with MCF7 breast it was 0.00385 µM. For the same compound, the TGI in the test on MDA-MB-231 breast was greater than 25 µM; with BT-549 breast it was 31.5 µM; with MCF7 breast it was greater than 16 µM.
As to `COc1ccc(OC)c(/C=C/c2nnc(Nc3ccc(Cl)cc3)o2)c1`, in the test on MDA-MB-231 breast, the GI50 was 5.23 µM and the TGI is 53.1 µM. Besides, in the test with MCF7 breast, the GI50 was 20.7 µM and the TGI was greater than 100 µM.
In the case of `O=C(O)C1C2C=CC(O2)C1C(=O)Nc1ccccc1` (centres undefined), the TGI in the test with MDA-MB-231 breast, in the test on BT-549 breast, in the test with MCF7 breast and in the test with MDA-N was greater than 100 µM each time.
As to `CS(=O)(=O)c1ccc(N/N=C/c2c(-c3ccc(S(C)(=O)=O)cc3)[nH]c3ccc(F)cc23)cc1`, the GI50 with MDA-MB-231 breast was 1.69 µM; in the test with BT-549 breast, 1.44 µM; with MCF7 breast it was 1.59 µM. Moreover, the TGI with MDA-MB-231 breast, in the test with BT-549 breast and in the test with MCF7 breast was greater than 50 µM each time.
On to `CNC(=O)c1ccc(Nc2ncc(C(F)(F)F)c(NCc3nccnc3N(C)S(C)(=O)=O)n2)cc1`, for which the GI50 in the test on MDA-MB-231 breast is 2.55 µM and 3.12 µM and 2.6 µM; in the test on BT-549 breast it was 2.98 µM and 2.06 µM and 2.14 µM; in the test on MCF7 breast, 1.79 µM and 2.16 µM and 1.88 µM. For the same compound, the TGI in the test on MDA-MB-231 breast is > 10 µM and 11.9 µM; in the test with BT-549 breast it was > 10 µM and 7.41 µM and 9.73 µM; with MCF7 breast, > 10 µM and 9.76 µM and 11.4 µM.
With `CCOC(=O)[C@H](CSSc1ncnc2cc[nH]c12)NC(=O)[C@@H](C)c1ccc2cc(OC)ccc2c1`, the GI50 in the test with MDA-MB-231 breast was 1.08 µM; with BT-549 breast, 0.916 µM; with MCF7 breast it was 0.122 µM. For the same compound, the TGI in the test with MDA-MB-231 breast, in the test with BT-549 breast and in the test with MCF7 breast was greater than 100 µM in each case.
As to `CC(=O)[CH-]C(=O)c1ccccc1.CC(=O)[CH-]C(=O)c1ccccc1.O=C([O-])C[O-].O=C([O-])C[O-].[Ti+4]`, the TGI in the test with M19-MEL melanoma and in the test on KM20L2 colon was greater than 100 µM in each case. Further, in the test on KM20L2 colon, the GI50 is 43.8 µM.
With `C#C[C@@]1(O)[C@@H](CO)O[C@@H](n2cc(Cl)c3c(N)ncnc32)[C@@H]1O`, in the test on MDA-MB-231 breast, the concentration for 50% growth inhibition (GI50) was 0.169 µM and the TGI was 0.951 µM. In addition, in the test with MCF7 breast, the GI50 is 0.0264 µM and the TGI stood at 1.1 µM.
With `COc1ccc(-c2coc3ncnc(N)c23)cc1`, the GI50 with MDA-MB-231 breast, in the test with BT-549 breast and in the test with MCF7 breast was greater than 25 µM throughout. For the same compound, the TGI in the test with MDA-MB-231 breast, with BT-549 breast and with MCF7 breast was greater than 25 µM each time.
Consider `O=C(O)C(=O)Cc1ccc2c(c1)OCO2`, for which the TGI with MDA-MB-231 breast, in the test with BT-549 breast, with MCF7 breast and in the test on MDA-N was greater than 100 µM each time.
`COc1ccc(C(=O)/C=C/c2cc3ccccc3[nH]c2=O)cc1`: the values for the GI50 with MDA-MB-231 breast, in the test with BT-549 breast and with MCF7 breast were 22.3 µM, 20.2 µM and 18.8 µM, respectively. Further, the TGI in the test on MDA-MB-231 breast is greater than 56.4 µM; in the test on BT-549 breast, greater than 42.9 µM; in the test with MCF7 breast it was greater than 96.1 µM.
